Measured values: patent US9706790B2, “Compounds, compositions, and methods for reducing or eliminating bitter taste” (CHROMOCELL CORPORATION, priority 2011, dated 2017)

Test system: bitter taste of KCl
Assay: KCl Latin Square-2AFC taste test, macaroni and cheese (chew and spit)
Type: in vivo, humans
Settings: KCl 5.7% in cheese powder (0.34% in final prepared food product); for # of panelists discerning decrease in bitter taste/# of panelists tested: versus KCl standard
Method: The taste test panelists used in the following examples were screened based upon and selected for their ability to perceive the bitter taste associated with potassium chloride. Only panelists capable of perceiving bitter taste participated in the following taste tests.
The effect of the test compounds on the perception of the bitter taste of KCl in prepared food products in humans was evaluated using a “chew and spit” test using a Latin Square-2AFC testing method as follows.
Edible KCl food products (“KCl test food product”) were prepared according to the following instructions. 6 cups water were boiled in stainless steel pot to a ‘rolling’ boil. Once a rolling boil was achieved, 166.5 grams of pasta were added to the boiling water. The pasta was stirred briefly to prevent the pasta from sticking to the pot. The pasta was boiled for 8.5 minutes and drained in a stainless steel colander. The pasta was shaken (approximately 15 times back and forth and twice up and down) to remove excess water. The drained pasta was returned to the stainless steel pot, and 56 grams (4 tablespoons) Land O'Lakes™ unsalted butter was added to the hot pasta. When the unsalted butter was half melted, 39.5 grams cheese powder (containing the KCl) was added in the center of the pasta. Separately, test compound was diluted in 1 ml of propylene glycol (PG; alternatively the test compound may also be diluted in a milk stock solution or a butter oil stock solution) and the resulting solution added to 99 ml of milk. 63 ml of the PG/milk solution was poured around cheese powder and gently folded into the pasta with a stainless steel spoon in order to avoid cheese clumping on spoon. KCl standards were similarly prepared by adding milk without any test compound.
The panelists tasted portions by chewing and spitting. In order to eliminate any effects of sample order, a complete Latin Square design was employed so that each possible order of sample presentation was utilized across subjects. Each sample was tested in several discrete taste test experiments. […]

With `C/C(=C\CO)CCCC(C)CCCC(C)CCCC(C)C` (stereo not drawn) [Compound 5] the “Conc. at Which At Least 50% of Panelists Discerned Decrease in Bitter Taste” value was 10 ppm, the “# of panelists discerning decrease in bitter taste/# of panelists tested” value (compound at 10 ppm) was 10 (28/50) and the “# of panelists discerning decrease in bitter taste/# of panelists tested” value (compound at 20 ppm) was 20 (20/49).
